Legend:
ryegrass, Italian [1] = experiment: Test C preemergence; type: in vivo, Lolium multiflorum
Procedure, shortened: (§1)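 Soil-applied (pre) and foliar (post, 1–2 leaf, 2–10 cm) sprays; surfactant-containing non-phytotoxic solvent vehicle; loam/sand substrate. Readout: visual % control at 10 d, greenhouse, versus untreated.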

barnyardgrass [2] = experiment: Test C preemergence; type: in vivo, Echinochloa crusgalli
Procedure, shortened: as §1

pigweed, palmer [3] = experiment: Test C preemergence; type: in vivo, Amaranthus palmeri
Procedure, shortened: as §1

ryegrass, Italian [4] = experiment: Test C postemergence; type: in vivo, Lolium multiflorum; details: 10 days, 0 to 100 scale (0 no effect, 100 complete control)
Procedure, shortened: as §1

kochia [5] = experiment: Test C postemergence; type: in vivo, Bassia scoparia; details: 10 days, 0 to 100 scale (0 no effect, 100 complete control)
Procedure, shortened: as §1

wheat [6] = experiment: Test C postemergence; type: in vivo, Triticum aestivum; details: 10 days, 0 to 100 scale (0 no effect, 100 complete control)
Procedure, shortened: as §1

kochia [7] = experiment: Test C preemergence; type: in vivo, Bassia scoparia
Procedure, shortened: as §1

horseweed = experiment: Test C postemergence; type: in vivo, Erigeron canadensis; details: 10 days, 0 to 100 scale (0 no effect, 100 complete control)
Procedure, shortened: as §1

sedge, umbrella = experiment: Test D flooded paddy test; type: in vivo, Cyperus difformis; details: 250 g ai/ha, applied to paddy water, visual rating after 13 to 14 days, scale 0 to 100 (0 no effect, 100 complete control)
Procedure, shortened: (§2)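 Compounds go straight into paddy water over 2-leaf plants in pots flooded to 3 cm. Greenhouse holding lasts 13 to 14 days. Injury is scored by eye against controls from 0 (none) to 100 (complete control).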

rice = experiment: Test D flooded paddy test; type: in vivo, Oryza sativa; details: 250 g ai/ha, applied to paddy water, visual rating after 13 to 14 days, scale 0 to 100 (0 no effect, 100 complete control)
Procedure, shortened: as §2

wheat [8] = experiment: Test C preemergence; type: in vivo, Triticum aestivum
Procedure, shortened: as §1

green foxtail [9] = experiment: Test C preemergence; type: in vivo, Setaria viridis
Procedure, shortened: as §1

barnyardgrass [10] = experiment: Test C postemergence; type: in vivo, Echinochloa crusgalli; details: 10 days, 0 to 100 scale (0 no effect, 100 complete control)
Procedure, shortened: as §1

blackgrass [11] = experiment: Test C postemergence; type: in vivo, Alopecurus myosuroides; details: 10 days, 0 to 100 scale (0 no effect, 100 complete control)
Procedure, shortened: as §1

corn [12] = experiment: Test C preemergence; type: in vivo, Zea mays
Procedure, shortened: as §1

ragweed [13] = experiment: Test C postemergence; type: in vivo, Ambrosia artemisiifolia; details: 10 days, 0 to 100 scale (0 no effect, 100 complete control)
Procedure, shortened: as §1

soybean [14] = experiment: Test C postemergence; type: in vivo, Glycine max; details: 10 days, 0 to 100 scale (0 no effect, 100 complete control)
Procedure, shortened: as §1

ducksalad = experiment: Test D flooded paddy test; type: in vivo, Heteranthera limosa; details: 250 g ai/ha, applied to paddy water, visual rating after 13 to 14 days, scale 0 to 100 (0 no effect, 100 complete control)
Procedure, shortened: as §2

oat, wild [15] = experiment: Test C preemergence; type: in vivo, Avena fatua
Procedure, shortened: as §1

green foxtail [16] = experiment: Test C postemergence; type: in vivo, Setaria viridis; details: 10 days, 0 to 100 scale (0 no effect, 100 complete control)
Procedure, shortened: as §1

galium = experiment: Test C postemergence; type: in vivo, Galium aparine; details: 10 days, 0 to 100 scale (0 no effect, 100 complete control)
Procedure, shortened: as §1

barnyardgrass [17] = experiment: Test D flooded paddy test; type: in vivo, Echinochloa crus-galli; details: 250 g ai/ha, applied to paddy water, visual rating after 13 to 14 days, scale 0 to 100 (0 no effect, 100 complete control)
Procedure, shortened: as §2

pigweed, palmer [18] = experiment: Test C postemergence; type: in vivo, Amaranthus palmeri; details: 10 days, 0 to 100 scale (0 no effect, 100 complete control)
Procedure, shortened: as §1

soybean [19] = experiment: Test C preemergence; type: in vivo, Glycine max
Procedure, shortened: as §1

oat, wild [20] = experiment: Test C postemergence; type: in vivo, Avena fatua; details: 10 days, 0 to 100 scale (0 no effect, 100 complete control)
Procedure, shortened: as §1

corn [21] = experiment: Test C postemergence; type: in vivo, Zea mays; details: 10 days, 0 to 100 scale (0 no effect, 100 complete control)
Procedure, shortened: as §1

ragweed [22] = experiment: Test C preemergence; type: in vivo, Ambrosia artemisiifolia
Procedure, shortened: as §1

blackgrass [23] = experiment: Test C preemergence; type: in vivo, Alopecurus myosuroides
Procedure, shortened: as §1

[24] = 500 g ai/ha, preemergence, 0 to 100 scale (0 no effect, 100 complete control)
[25] = Preemergence, 125 g ai/ha, 0 to 100 scale, 0 no effect, 100 complete control

COC[C@H]1CN(C(=O)c2cc(-n3cnc(C(C)(C)C)n3)cc3c2OCCO3)c2cccc(Cl)c2O1 [Compound 382]
Ryegrass, Italian plant response rating (ryegrass, Italian [1]; [24]): 100
Plant response rating, Ryegrass, Italian (ryegrass, Italian [1]; [25]): 80
Barnyardgrass plant response rating (barnyardgrass [2]; [24]): 100
Plant response rating, Barnyardgrass (barnyardgrass [2]; [25]): 50
Pigweed, Palmer plant response rating (pigweed, palmer [3]; [24]): 100
Plant response rating, Pigweed, Palmer (pigweed, palmer [3]; [25]): 100
Plant response rating, Ryegrass, Italian (ryegrass, Italian [4]; 500 g ai/ha, postemergence): 60
Plant response rating, Ryegrass, Italian (ryegrass, Italian [4]; Postemergence, 125 g ai/ha): 40
Plant response rating, Kochia (kochia [5]; 500 g ai/ha, postemergence): 100
Plant response rating, Kochia (kochia [5]; Postemergence, 125 g ai/ha): 90
Plant response rating, Wheat (wheat [6]; 500 g ai/ha, postemergence): 40
Plant response rating, Wheat (wheat [6]; Postemergence, 125 g ai/ha): 20
Kochia plant response rating (kochia [7]; [24]): 100
Plant response rating, Kochia (kochia [7]; [25]): 80
Plant response rating, Horseweed (horseweed; 500 g ai/ha, postemergence): 50
Plant response rating, Horseweed (horseweed; Postemergence, 125 g ai/ha): 50
Plant response rating, Sedge, Umbrella (Flood) (sedge, umbrella): 25
Plant response rating, Rice (Flood) (rice): 15
Wheat plant response rating (wheat [8]; [24]): 40
Plant response rating, Wheat (wheat [8]; [25]): 0
Foxtail, Green plant response rating (green foxtail [9]; [24]): 100
Plant response rating, Foxtail, Green (green foxtail [9]; [25]): 90
Plant response rating, Barnyardgrass (barnyardgrass [10]; 500 g ai/ha, postemergence): 50
Plant response rating, Barnyardgrass (barnyardgrass [10]; Postemergence, 125 g ai/ha): 30
Plant response rating, Blackgrass (blackgrass [11]; 500 g ai/ha, postemergence): 40
Plant response rating, Blackgrass (blackgrass [11]; Postemergence, 125 g ai/ha): 10
Corn plant response rating (corn [12]; [24]): 70
Plant response rating, Corn (corn [12]; [25]): 10
Plant response rating, Ragweed (ragweed [13]; 500 g ai/ha, postemergence): 90
Plant response rating, Ragweed (ragweed [13]; Postemergence, 125 g ai/ha): 90
Plant response rating, Soybean (soybean [14]; 500 g ai/ha, postemergence): 100
Plant response rating, Soybean (soybean [14]; Postemergence, 125 g ai/ha): 100
Plant response rating, Ducksalad (Flood) (ducksalad): 15
Oat, Wild plant response rating (oat, wild [15]; [24]): 80
Plant response rating, Oat, Wild (oat, wild [15]; [25]): 20
Plant response rating, Foxtail, Green (green foxtail [16]; 500 g ai/ha, postemergence): 60
Plant response rating, Foxtail, Green (green foxtail [16]; Postemergence, 125 g ai/ha): 20
Plant response rating, Galium (galium; 500 g ai/ha, postemergence): 100
Plant response rating, Galium (galium; Postemergence, 125 g ai/ha): 100
Plant response rating, Barnyardgrass (Flood) (barnyardgrass [17]): 50
Plant response rating, Pigweed, Palmer (pigweed, palmer [18]; 500 g ai/ha, postemergence): 100
Plant response rating, Pigweed, Palmer (pigweed, palmer [18]; Postemergence, 125 g ai/ha): 100
Soybean plant response rating (soybean [19]; [24]): 80
Plant response rating, Soybean (soybean [19]; [25]): 60
Plant response rating, Oat, Wild (oat, wild [20]; 500 g ai/ha, postemergence): 0
Plant response rating, Oat, Wild (oat, wild [20]; Postemergence, 125 g ai/ha): 0
Plant response rating, Corn (corn [21]; 500 g ai/ha, postemergence): 50
Plant response rating, Corn (corn [21]; Postemergence, 125 g ai/ha): 20
Ragweed plant response rating (ragweed [22]; [24]): 100
Plant response rating, Ragweed (ragweed [22]; [25]): 60
Blackgrass plant response rating (blackgrass [23]; [24]): 50
Plant response rating, Blackgrass (blackgrass [23]; [25]): 10
